Assay: excess molar enthalpy (molar enthalpy of mixing); xn = mol fraction of the nth substance listed
Conditions: Liquid, Flow calorimetry

COC(=O)OC [dimethyl carbonate] + CCCO
Conditions	excess molar enthalpy [kcal/mol]
298.15 K, 1000 kPa, x1 = 0.05	0.108
298.15 K, 1000 kPa, x1 = 0.1	0.2025
298.15 K, 1000 kPa, x1 = 0.15	0.2782
298.15 K, 1000 kPa, x1 = 0.2	0.3401
298.15 K, 1000 kPa, x1 = 0.25	0.3833
298.15 K, 1000 kPa, x1 = 0.3	0.4194
298.15 K, 1000 kPa, x1 = 0.35	0.447
298.15 K, 1000 kPa, x1 = 0.4	0.4608
298.15 K, 1000 kPa, x1 = 0.45	0.4692
298.15 K, 1000 kPa, x1 = 0.5	0.4679
298.15 K, 1000 kPa, x1 = 0.55	0.4588
298.15 K, 1000 kPa, x1 = 0.6	0.4437
298.15 K, 1000 kPa, x1 = 0.65	0.4199
298.15 K, 1000 kPa, x1 = 0.7	0.3883
298.15 K, 1000 kPa, x1 = 0.75	0.3492
298.15 K, 1000 kPa, x1 = 0.8	0.2996
298.15 K, 1000 kPa, x1 = 0.85	0.2396
298.15 K, 1000 kPa, x1 = 0.9515	0.0831
313.15 K, 1000 kPa, x1 = 0.0485	0.1015
313.15 K, 1000 kPa, x1 = 0.1002	0.2101
313.15 K, 1000 kPa, x1 = 0.1512	0.2976
313.15 K, 1000 kPa, x1 = 0.2017	0.3682
313.15 K, 1000 kPa, x1 = 0.2516	0.4232
313.15 K, 1000 kPa, x1 = 0.3009	0.4634
313.15 K, 1000 kPa, x1 = 0.3497	0.4921
313.15 K, 1000 kPa, x1 = 0.4014	0.5134
313.15 K, 1000 kPa, x1 = 0.449	0.5231
313.15 K, 1000 kPa, x1 = 0.4995	0.5234
313.15 K, 1000 kPa, x1 = 0.5494	0.5136
313.15 K, 1000 kPa, x1 = 0.5987	0.4971
313.15 K, 1000 kPa, x1 = 0.6506	0.4702
313.15 K, 1000 kPa, x1 = 0.6988	0.4383
313.15 K, 1000 kPa, x1 = 0.7495	0.3945
313.15 K, 1000 kPa, x1 = 0.8491	0.2714
313.15 K, 1000 kPa, x1 = 0.901	0.1899
313.15 K, 1000 kPa, x1 = 0.9493	0.0957
313.15 K, 10000 kPa, x1 = 0.0482	0.1172
313.15 K, 10000 kPa, x1 = 0.0996	0.2233
313.15 K, 10000 kPa, x1 = 0.1504	0.3101
313.15 K, 10000 kPa, x1 = 0.2007	0.3795
313.15 K, 10000 kPa, x1 = 0.2505	0.4328
313.15 K, 10000 kPa, x1 = 0.2997	0.4731
313.15 K, 10000 kPa, x1 = 0.3483	0.502
313.15 K, 10000 kPa, x1 = 0.3999	0.5218
313.15 K, 10000 kPa, x1 = 0.4509	0.5315
313.15 K, 10000 kPa, x1 = 0.5013	0.5316
313.15 K, 10000 kPa, x1 = 0.5512	0.5228
313.15 K, 10000 kPa, x1 = 0.6005	0.5047
313.15 K, 10000 kPa, x1 = 0.6493	0.4798
313.15 K, 10000 kPa, x1 = 0.7007	0.4413
313.15 K, 10000 kPa, x1 = 0.7515	0.3942
313.15 K, 10000 kPa, x1 = 0.8514	0.2719
313.15 K, 10000 kPa, x1 = 0.9005	0.1934
313.15 K, 10000 kPa, x1 = 0.949	0.09892
328.15 K, 1000 kPa, x1 = 0.05	0.1178
328.15 K, 1000 kPa, x1 = 0.1	0.2285
328.15 K, 1000 kPa, x1 = 0.15	0.3207
328.15 K, 1000 kPa, x1 = 0.2	0.3941
328.15 K, 1000 kPa, x1 = 0.25	0.4542
328.15 K, 1000 kPa, x1 = 0.3	0.4986
328.15 K, 1000 kPa, x1 = 0.35	0.5304
328.15 K, 1000 kPa, x1 = 0.4	0.553
328.15 K, 1000 kPa, x1 = 0.45	0.5666
328.15 K, 1000 kPa, x1 = 0.5	0.5671
328.15 K, 1000 kPa, x1 = 0.55	0.5597
328.15 K, 1000 kPa, x1 = 0.6	0.5432
328.15 K, 1000 kPa, x1 = 0.65	0.5174
328.15 K, 1000 kPa, x1 = 0.7	0.4791
328.15 K, 1000 kPa, x1 = 0.75	0.4296
328.15 K, 1000 kPa, x1 = 0.85	0.2956
328.15 K, 1000 kPa, x1 = 0.9	0.2109
328.15 K, 1000 kPa, x1 = 0.95	0.1065

COC(=O)OC [dimethyl carbonate] + CC(C)O
Conditions	excess molar enthalpy [kcal/mol]
298.15 K, 1000 kPa, x1 = 0.05	0.1201
298.15 K, 1000 kPa, x1 = 0.1	0.222
298.15 K, 1000 kPa, x1 = 0.15	0.3028
298.15 K, 1000 kPa, x1 = 0.2	0.3695
298.15 K, 1000 kPa, x1 = 0.25	0.4209
298.15 K, 1000 kPa, x1 = 0.3	0.4599
298.15 K, 1000 kPa, x1 = 0.35	0.4899
298.15 K, 1000 kPa, x1 = 0.4	0.5097
298.15 K, 1000 kPa, x1 = 0.45	0.5212
298.15 K, 1000 kPa, x1 = 0.5	0.5264
298.15 K, 1000 kPa, x1 = 0.55	0.5191
298.15 K, 1000 kPa, x1 = 0.6	0.5048
298.15 K, 1000 kPa, x1 = 0.65	0.4805
298.15 K, 1000 kPa, x1 = 0.7	0.4459
298.15 K, 1000 kPa, x1 = 0.75	0.4012
298.15 K, 1000 kPa, x1 = 0.8	0.3425
298.15 K, 1000 kPa, x1 = 0.95	0.1068
313.15 K, 100 kPa, x1 = 0.0483	0.1117
313.15 K, 100 kPa, x1 = 0.0998	0.2227
313.15 K, 100 kPa, x1 = 0.1507	0.3146
313.15 K, 100 kPa, x1 = 0.2011	0.388
313.15 K, 100 kPa, x1 = 0.2509	0.4473
313.15 K, 100 kPa, x1 = 0.3002	0.4924
313.15 K, 100 kPa, x1 = 0.3489	0.5277
313.15 K, 100 kPa, x1 = 0.4005	0.5535
313.15 K, 100 kPa, x1 = 0.4515	0.5679
313.15 K, 100 kPa, x1 = 0.4986	0.5718
313.15 K, 100 kPa, x1 = 0.5485	0.5651
313.15 K, 100 kPa, x1 = 0.6011	0.5502
313.15 K, 100 kPa, x1 = 0.6498	0.5244
313.15 K, 100 kPa, x1 = 0.7012	0.4887
313.15 K, 100 kPa, x1 = 0.7488	0.4419
313.15 K, 100 kPa, x1 = 0.8486	0.3137
313.15 K, 100 kPa, x1 = 0.9007	0.2235
313.15 K, 100 kPa, x1 = 0.9492	0.1156
313.15 K, 1000 kPa, x1 = 0.0483	0.1108
313.15 K, 1000 kPa, x1 = 0.0998	0.2231
313.15 K, 1000 kPa, x1 = 0.1507	0.3136
313.15 K, 1000 kPa, x1 = 0.201	0.3871
313.15 K, 1000 kPa, x1 = 0.2508	0.4465
313.15 K, 1000 kPa, x1 = 0.3	0.4932
313.15 K, 1000 kPa, x1 = 0.3487	0.5283
313.15 K, 1000 kPa, x1 = 0.4003	0.5534
313.15 K, 1000 kPa, x1 = 0.4513	0.5642
313.15 K, 1000 kPa, x1 = 0.4984	0.5678
313.15 K, 1000 kPa, x1 = 0.5516	0.5622
313.15 K, 1000 kPa, x1 = 0.6009	0.5476
313.15 K, 1000 kPa, x1 = 0.6497	0.5221
313.15 K, 1000 kPa, x1 = 0.7011	0.486
313.15 K, 1000 kPa, x1 = 0.7487	0.4405
313.15 K, 1000 kPa, x1 = 0.8486	0.3109
313.15 K, 1000 kPa, x1 = 0.9007	0.2209
313.15 K, 1000 kPa, x1 = 0.9491	0.1173
313.15 K, 10000 kPa, x1 = 0.0517	0.1095
313.15 K, 10000 kPa, x1 = 0.0992	0.212
313.15 K, 10000 kPa, x1 = 0.1499	0.303
313.15 K, 10000 kPa, x1 = 0.2	0.3768
313.15 K, 10000 kPa, x1 = 0.2497	0.4355
313.15 K, 10000 kPa, x1 = 0.2988	0.4813
313.15 K, 10000 kPa, x1 = 0.3508	0.5177
313.15 K, 10000 kPa, x1 = 0.3989	0.5407
313.15 K, 10000 kPa, x1 = 0.4499	0.5557
313.15 K, 10000 kPa, x1 = 0.5003	0.5598
313.15 K, 10000 kPa, x1 = 0.5501	0.5537
313.15 K, 10000 kPa, x1 = 0.5995	0.5393
313.15 K, 10000 kPa, x1 = 0.6515	0.5131
313.15 K, 10000 kPa, x1 = 0.6998	0.48
313.15 K, 10000 kPa, x1 = 0.7507	0.4325
313.15 K, 10000 kPa, x1 = 0.8011	0.3729
313.15 K, 10000 kPa, x1 = 0.8509	0.3054
313.15 K, 10000 kPa, x1 = 0.9001	0.2228
313.15 K, 10000 kPa, x1 = 0.9488	0.1259
328.15 K, 1000 kPa, x1 = 0.05	0.1293
328.15 K, 1000 kPa, x1 = 0.1	0.2339
328.15 K, 1000 kPa, x1 = 0.15	0.3279
328.15 K, 1000 kPa, x1 = 0.2	0.4052
328.15 K, 1000 kPa, x1 = 0.25	0.4674
328.15 K, 1000 kPa, x1 = 0.3	0.5156
328.15 K, 1000 kPa, x1 = 0.35	0.5557
328.15 K, 1000 kPa, x1 = 0.4	0.5822
328.15 K, 1000 kPa, x1 = 0.45	0.5962
328.15 K, 1000 kPa, x1 = 0.5	0.6034
328.15 K, 1000 kPa, x1 = 0.55	0.5992
328.15 K, 1000 kPa, x1 = 0.6	0.5851
328.15 K, 1000 kPa, x1 = 0.65	0.5559
328.15 K, 1000 kPa, x1 = 0.7	0.5128
328.15 K, 1000 kPa, x1 = 0.75	0.4679
328.15 K, 1000 kPa, x1 = 0.8	0.4034
328.15 K, 1000 kPa, x1 = 0.85	0.3257
328.15 K, 1000 kPa, x1 = 0.9	0.2299
328.15 K, 1000 kPa, x1 = 0.95	0.1163
